For 5 compounds, inhibition and mortality results are on record in US12486272B2 (NIHON NOHYAKU CO., LTD., priority 2019, dated 2025).

One test relates to Dirofilaria immitis. As to the kind of experiment: Larval motility assay on Dirofilaria immitis. The conditions noted are these: 72 h, L1 stage larvae, 3 days, relative to DMSO only, read-out: percent motility inhibition. The protocol:
Larval Motility Assay on Dirofilaria immitis
Five hundred L1 stage larvae of D. immitis were diluted in a predetermined conditioned medium and introduced into each well of a 96-well plate. DMSO diluted solutions of various compounds of the present invention were added at the final concentration of 50 ppm to the wells of the 96-well plate. The plate was allowed to stand for 3 days, and then larval motility was examined. The percent motility inhibition in the wells of each treatment was calculated relative to the wells of treatment with DMSO only.

The subject of a further test is Haemonchus contortus. Nature of the test: Larval motility assay on Haemonchus contortus. The conditions noted are these: 96 h, L1 stage larvae, 4 days, relative to DMSO only, read-out: percent motility inhibition. As for the experimental part:
Larval Motility Assay on Haemonchus contortus DMSO diluted solutions of various compounds of the present invention were added at the final concentration of 50 ppm to the wells of a 96-well plate containing a predetermined conditioned medium. Twenty L1 stage larvae of H. contortus were introduced into each well of the 96-well plate. The plate was allowed to stand for 4 days, and then larval motility was examined. The percent motility inhibition in the wells of each treatment was calculated relative to the wells of treatment with DMSO only.

The next test concerns Ctenocephalides felis. As to the kind of experiment: whole plant or invertebrate. It is filed as in vivo. The conditions noted are these: 50 ppm in bovine blood, oral via feeder, adults, following day, read-out: mortality rate.
The next test relates to Rhipicephalus sanguineus. Nature of the test: Assay for transdermal parasiticidal activity against nymphs of Rhipicephalus sanguineus. The conditions noted are these: 48 h, read-out: mortality rate. It is filed as in vivo. The text has this:
Assay for Transdermal Parasiticidal Activity Against Nymphs of Rhipicephalus sanguineus
DMSO diluted solutions of various compounds of the present invention were individually diluted to the final concentration of 100 ppm with an acetone/triton mixture and applied to the inside of vented sample bottles. After overnight drying, ten nymphs of R. sanguineus were introduced into each bottle, and the mortality rate was examined two days later. Aberrant adults were regarded as the dead.

Where only a bound is given, the exact number is not on record here.

On to `CCS(=O)(=O)c1cc(/C(=N/OCCS(C)(=O)=O)OC)cnc1-c1nc2cc(C(F)(F)C(F)(F)F)nnc2n1C` [Compound 1-3, Methyl 5-ethylsulfonyl-N-(2-methylsulfonylethoxy)-6-(6-pentafluoroethyl-3-methyl-3H-imidazo[4,5-c]pyridazin-2-yl)nicotinimidate], for which the inhibition at 50 ppm in the test with Dirofilaria immitis and in the test on Haemonchus contortus was at least 50% throughout. Also, in the test with Ctenocephalides felis, the mortality – broadly, the share of the test organisms that died – at 50 ppm was at least 50%.

For `CCS(=O)(=O)c1cc(/C(=N/OCCSC)SC)cnc1-c1nc2cc(C(F)(F)C(F)(F)F)nnc2n1C` [Compound 1-19, Methyl 5-ethylsulfonyl-N-(2-methylthioethoxy)-6-(6-pentafluoroethyl-3-methyl-3H-imidazo[4,5-c]pyridazin-2-yl)nicotinyl thioimidate], the inhibition at 50 ppm in the test on Dirofilaria immitis and with Haemonchus contortus was at least 50% in each case. The mortality at 100 ppm with Rhipicephalus sanguineus is at least 50%.

As to `CCS(=O)(=O)c1cc(/C(Br)=N/OCCSC)cnc1-c1nc2cc(C(F)(F)C(F)(F)F)nnc2n1C` [Compound 1-16], the inhibition (in general, the share of the control response that was lost under treatment) at 50 ppm with Dirofilaria immitis is at least 50%.

In the case of `CCS(=O)(=O)c1cc(/C(=N/OCCSC)n2cncn2)cnc1-c1nc2cc(C(F)(F)C(F)(F)F)nnc2n1C` [Compound 1-22], the inhibition at 50 ppm with Dirofilaria immitis and with Haemonchus contortus was at least 50% each time. Besides, the mortality at 50 ppm with Ctenocephalides felis was at least 50%.

Regarding `CCS(=O)(=O)c1cc(/C(=N/OCCSC)OC)cnc1-c1nc2cc(C(F)(F)C(F)(F)F)nnc2n1C` [Compound 1-1, methyl 5-ethylsulfonyl-N-(2-methylthioethoxy)-6-(6-pentafluoroethyl-3-methyl-3H-imidazo[4,5-c]pyridazin-2-yl)nicotinimidate], the inhibition at 50 ppm in the test with Dirofilaria immitis and in the test with Haemonchus contortus was at least 50% each time. Further, in the test with Rhipicephalus sanguineus, the mortality at 100 ppm was at least 50%. The mortality at 50 ppm in the test with Ctenocephalides felis is at least 50%.
